# From publication PMC6175931, “Structural insights into the electron/proton transfer pathways in the quinol:fumarate reductase from Desulfovibrio gigas” (Scientific Reports, 2018)
# Biological target: T1, quinol:fumarate reductase (QFR), site in subunit A (FAD-binding protein) (Megalodesulfovibrio gigas, UniProt T2GB49)
# T1 construct: gene fdrA; native, purified from D. gigas membranes in DDM; A2B2C2 homo-dimer; subunit A 627 residues (1-622 built), B 264, C 218; with Fumarate reductase iron-sulfur subunit; Fumarate reductase cytochrome b subunit
# T1 sequence (T2GB49 1-627): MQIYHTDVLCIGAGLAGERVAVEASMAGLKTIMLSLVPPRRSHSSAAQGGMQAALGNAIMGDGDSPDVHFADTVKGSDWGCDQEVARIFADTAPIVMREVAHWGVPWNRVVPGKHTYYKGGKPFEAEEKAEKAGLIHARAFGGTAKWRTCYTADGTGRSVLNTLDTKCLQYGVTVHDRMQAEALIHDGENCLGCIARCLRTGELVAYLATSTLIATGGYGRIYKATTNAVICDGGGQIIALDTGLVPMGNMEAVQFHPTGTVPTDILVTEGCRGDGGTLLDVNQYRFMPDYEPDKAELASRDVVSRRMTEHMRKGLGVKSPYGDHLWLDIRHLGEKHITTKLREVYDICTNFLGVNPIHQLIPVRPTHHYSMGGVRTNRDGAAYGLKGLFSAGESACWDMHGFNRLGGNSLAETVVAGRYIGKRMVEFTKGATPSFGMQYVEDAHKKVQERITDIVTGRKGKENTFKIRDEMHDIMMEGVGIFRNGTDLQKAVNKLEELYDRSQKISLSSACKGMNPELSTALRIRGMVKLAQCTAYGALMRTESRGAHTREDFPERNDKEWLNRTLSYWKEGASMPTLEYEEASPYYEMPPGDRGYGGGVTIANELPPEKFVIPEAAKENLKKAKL
# T1 sequence (T2G9X8 1-264 partner): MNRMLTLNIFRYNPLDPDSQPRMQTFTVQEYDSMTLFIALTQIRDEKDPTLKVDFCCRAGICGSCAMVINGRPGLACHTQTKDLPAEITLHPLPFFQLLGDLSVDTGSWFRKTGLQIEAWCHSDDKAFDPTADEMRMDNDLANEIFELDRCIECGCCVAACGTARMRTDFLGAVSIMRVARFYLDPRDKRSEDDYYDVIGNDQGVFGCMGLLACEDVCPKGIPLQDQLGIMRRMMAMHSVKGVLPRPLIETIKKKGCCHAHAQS
# T1 sequence (T2GAT5 1-218 partner): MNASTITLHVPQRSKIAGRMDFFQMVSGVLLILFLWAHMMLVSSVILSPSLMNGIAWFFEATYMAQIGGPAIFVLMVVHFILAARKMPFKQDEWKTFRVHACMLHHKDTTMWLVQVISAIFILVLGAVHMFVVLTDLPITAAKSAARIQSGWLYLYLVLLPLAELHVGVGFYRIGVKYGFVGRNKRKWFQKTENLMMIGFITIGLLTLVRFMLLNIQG
# Test: X-ray crystal structure, […] Å
# Conditions: crystals at pH 8.5
Structure (SMILES),"X-ray crystal structure, 3.6 Å (covalent, C8M methyl of flavin to His-A43)","X-ray crystal structure, 3.6 Å (fumarate site near the FAD in subunit A)"
"Cc1cc2nc3c(=O)[nH]c(=O)nc-3n(C[C@H](O)[C@H](O)[C@H](O)COP(=O)(O)OP(=O)(O)OC[C@H]3O[C@@H](n4cnc5c(N)ncnc54)[C@H](O)[C@@H]3O)c2cc1C [FAD, flavin adenine dinucleotide]",FAD binds to the FAD-binding domain through a covalent bond with residue His-A43,–
O=C(O)/C=C/C(=O)O [fumarate],–,A fumarate molecule is also observed near the FAD in the A subunit
